Test results: article PMC6753678, “Fueling Open Innovation for Malaria Transmission-Blocking Drugs: Hundreds of Molecules Targeting Early Parasite Mosquito Stages” (Frontiers in Microbiology, 2019)

Tests used:
[1] = system: P. falciparum late stage (stages IV-V) gametocytes; assay: P. falciparum late stage gametocyte ATP depletion assay (Pf GC-ATP); conditions: 1: YES; 0: NO; >10-fold selectivity over cytotoxicity
[2] = system: HepG2 cells; assay: HepG2 cytotoxicity assay; conditions: HepG2 cytotoxicity unified across screens; >25 set to 25.00
How it was run: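 HepG2 cells, 2,500 per well in MEM with 10% FBS and 1% NEAA, exposed to compounds for 48 h at 37°C, 5% CO2. Viability read by fluorescence; percent inhibition relative to 50 μM doxorubicin and DMSO controls.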

[3] = system: P. falciparum late stage (stages IV-V) gametocytes; design: method as in Almela et al 2016; conditions: P. falciparum late stage gametocyte ATP assay, TCAMS screen; ref Almela et al 2016; read-out: Pf GCT ATP IC50; cited from earlier work

Compound | Is compound selective in assay? Pf GC-ATP active? [1] | Unified cytotox [2] [µM] | IC50 [3] [nM]
CCN(CC)CCOc1ccc(C(O)(C#CC(O)(c2ccc(OCCN(CC)CC)cc2)c2ccc([N+](=O)[O-])cc2)c2ccc([N+](=O)[O-])cc2)cc1 (stereo not drawn) [TCMDC-137201] | 1 (1: YES) | 6.20 | 220
CCc1cc(COc2ccc(CNCCC(C)C)cc2I)c(OCc2ccccc2)c(COc2ccc(CNCCC(C)C)cc2I)c1.Cl [TCMDC-137255] | 0 (0: NO) | 5.80 | 1020
CC(C)CCNCc1ccc(OCc2cccc(COc3ccc(CNCCC(C)C)cc3I)c2)c(I)c1.Cl [TCMDC-137274] | 1 (1: YES) | 5.30 | 370
Cl.N=C(NCCCc1ccccc1)c1cccc(C(=N)NCCCc2ccccc2)n1 [TCMDC-137453] | 1 (1: YES) | 12.80 | 310
COc1cc(CCNC(=N)/C=C/c2ccc(Cl)cc2)ccc1Cl.Cl [TCMDC-137457] | 1 (1: YES) | 14.00 | 280
CCCCN(CCCC)CCCCNc1c2ccccc2nc2ccccc12.Cl [TCMDC-137461] | 1 (1: YES) | 19.00 | 550
COc1ccc2nc3cc(Cl)ccc3c(NCCN3CCN(C)CC3)c2c1 [TCMDC-137476] | 1 (1: YES) | 19.33 | 1880
CN1CCN(CCCCNc2c3ccccc3nc3ccccc23)CC1 [TCMDC-137479] | 0 (0: NO) | 3.39 | 1320
Br.C=CCNC(CCCCC)c1ccc(OCCOc2ccc(C(CCCCC)NCC=C)cc2)cc1 (stereo not drawn) [TCMDC-137483] | 0 (0: NO) | 5.80 | 910
CCCCN1CCN(CCCCNc2c3ccccc3nc3ccccc23)CC1.Cl [TCMDC-137569] | 1 (1: YES) | 12.68 | 1190
COc1ccc2nc3cc(Cl)ccc3c(NCCCCN3CCNCC3)c2c1.Cl [TCMDC-137578] | 0 (0: NO) | 5.00 | 660
Br.CCCCC(NCC)c1ccc(OCCOc2ccc(C(CCCC)NCC)cc2)cc1 (stereo not drawn) [TCMDC-137612] | 1 (1: YES) | 6.10 | 420
CCCCCCNC(=N)c1ccc(OCCCCCOc2ccc(C(=N)NCCCCCC)cc2)cc1.Cl [TCMDC-137619] | 1 (1: YES) | 5.39 | 310
CCCCCCC(N)c1ccc(OCCCOc2ccc(C(N)CCCCCC)cc2)cc1.Cl (stereo not drawn) [TCMDC-137621] | 1 (1: YES) | 1.90 | 53.3
CCCCCOc1ccc(C(=NC)N(CCCCC)CCCCC)c2ccccc12.I [TCMDC-137703] | 0 (0: NO) | 6.30 | 890
CCOc1ccc2ccccc2c1CNCCCCCCNCc1c(OCC)ccc2ccccc12.CS(=O)(=O)O [TCMDC-137791] | 0 (0: NO) | 1.75 | 700
Br.c1cc(C2=NC3CCCCC3N2)ccc1OCCCCCOc1ccc(C2=NC3CCCCC3N2)cc1 (stereo not drawn) [TCMDC-137802] | 1 (1: YES) | 3.74 | 280
COc1ccc2c(c1CNCCCCCCNCc1c(OC)ccc3c1CCCC3)CCCC2 [TCMDC-137817] | 0 (0: NO) | 3.83 | 420
COc1cc2ccccc2c(OC)c1CNCCCCCCNCc1c(OC)cc2ccccc2c1OC.CS(=O)(=O)O [TCMDC-137843] | 1 (1: YES) | 4.25 | 320

Compound | Is compound selective in assay? Pf GC-ATP active? [1] | Unified cytotox [2] [µM] | IC50 [3] [nM]
CN(CCCNCc1cccc2ccccc12)CCCNCc1cccc2ccccc12.Cl [TCMDC-137905] | 1 (1: YES) | 5.72 | 230
COCCCNC(=S)NN=C(C)c1ccccn1 [TCMDC-137907] | 1 (1: YES) | 17.00 | 160
Cl.c1ccc2c(CNCCCN3CCN(CCCNCc4c5ccccc5cc5ccccc45)CC3)c3ccccc3cc2c1 [TCMDC-137909] | 1 (1: YES) | 6.28 | 110
Cl.c1ccc2c(NCCCCCCNc3ccnc4ccccc34)ccnc2c1 [TCMDC-137913] | 1 (1: YES) | 16.40 | 960
Cl.c1ccc2c(c1)cc(CNCCCN1CCN(CCCNCc3cc4ccccc4c4ccccc34)CC1)c1ccccc12 [TCMDC-137914] | 1 (1: YES) | 13.70 | 1110
Cl.c1ccc(CN2CCN(CCCCNc3c4ccccc4nc4ccccc34)CC2)cc1 [TCMDC-138009] | 1 (1: YES) | 9.92 | 790
COc1ccc2nc3cc(Cl)ccc3c(NCCCCNc3c4ccc(Cl)cc4nc4ccc(OC)cc34)c2c1 [TCMDC-138218] | 1 (1: YES) | 14.47 | 200
Cc1nc(-c2cccc(Nc3ccnc4cc(-c5nccs5)ccc34)c2)no1.Cl [TCMDC-138334] | 1 (1: YES) | 7.62 | 300
Cc1cc(NCCc2ccccc2)nc(NC(=N)Nc2ccccc2Cl)n1 [TCMDC-138370] | 0 (0: NO) | 13.60 | 4870
CS(=O)(=O)CCNCc1nc(-c2ccc3c(=O)[nH]cnc3c2)cs1 [TCMDC-138539] | 0 (0: NO) | 4.20 | 2680
Cl.O=C(NCCCCN1CCC(c2ccc3c(c2OCCO)CCCC3)CC1)c1ccc2oc(-c3ccc(C(F)(F)F)cc3)cc2c1 [TCMDC-138771] | 1 (1: YES) | 6.59 | 630
C=C(C)Cn1cc(C2CCN(CCN3CCC(CNC(=O)c4ccc(-c5ccc(C#N)cc5)cc4)CC3)CC2)c2ccccc21 [TCMDC-138854] | 0 (0: NO) | 3.70 | 2930
O=C(NCCCCN1CCC(c2c[nH]c3ccc(-c4ccccc4)cc23)CC1)c1ccc(-c2ccccc2)cc1.O=C(O)C(=O)O [TCMDC-139064] | 0 (0: NO) | 9.40 | 1830
CCCCCCCN1CC[C@@H](CCCc2ccnc3ccc(OC)cc23)[C@@H](CCN)C1.O=C(O)C(=O)O [TCMDC-139278] | 1 (1: YES) | 2.98 | 270
COc1ccc(COc2cc(NCCCN)nc3ccccc23)cc1 [TCMDC-139286] | 1 (1: YES) | 13.98 | 560
O=C(/C=C/c1ccc(Cl)c(Cl)c1)NCCCCCN1CCCC(CNS(=O)(=O)c2cccc(C(F)(F)F)c2)C1 (stereo not drawn) [TCMDC-139597] | 0 (0: NO) | 3.80 | 8630
CC(C)CCNC(=O)c1cnc2c(O)cccc2c1Nc1cccc(NC(=O)c2ccc(F)cc2)c1.O=C(O)C(F)(F)F [TCMDC-139606] | 0 (0: NO) | 5.27 | 1270
O=C(Nc1ccc(Oc2ccccc2)cc1)N(CCN1CCCC1)Cc1ccc(-c2ccc(CN3CCNCC3)cc2)cc1.O=C(O)C(F)(F)F [TCMDC-139652] | 0 (0: NO) | 7.08 | 1020
COc1ccc(CCNC(C)Cc2ccc(C(=O)Nc3ccc(CC(C)NCCc4cccc(Cl)c4)cc3)cc2)cc1 (stereo not drawn) [TCMDC-139750] | 0 (0: NO) | 2.40 | 620
